Assay results published in ChEMBL document CHEMBL4765478, “Lithocholic Acid Derivatives as Potent Vitamin D Receptor Agonists” (J Med Chem, 2021).
The source made the active and inactive calls. The calls are words filed in the database; no cut-off is given here.

Columns and labels:
[1] = biological target: T1, Vitamin D3 receptor (Homo sapiens) (UniProt P11473); experiment: Agonist activity at VDR in human HL-60 cells assessed as induction of cell differentiation of promyelocytes to monocytes at 0.1 nM after 4 days by NBT reduction assay; assay type: cell-based; settings: filed as agonist, time 4.0 day
T1 sequence (whole entry): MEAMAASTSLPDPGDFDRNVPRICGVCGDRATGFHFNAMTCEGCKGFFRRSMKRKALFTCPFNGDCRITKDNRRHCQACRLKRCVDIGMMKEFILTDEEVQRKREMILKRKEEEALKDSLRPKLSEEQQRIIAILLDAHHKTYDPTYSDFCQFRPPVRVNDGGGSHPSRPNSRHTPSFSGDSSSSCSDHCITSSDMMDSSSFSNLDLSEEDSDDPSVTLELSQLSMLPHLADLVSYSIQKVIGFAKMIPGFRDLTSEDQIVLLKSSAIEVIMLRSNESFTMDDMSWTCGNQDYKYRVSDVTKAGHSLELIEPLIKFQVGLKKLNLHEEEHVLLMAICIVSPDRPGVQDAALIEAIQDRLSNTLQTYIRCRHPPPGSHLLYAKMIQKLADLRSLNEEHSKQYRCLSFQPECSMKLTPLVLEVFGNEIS

[2] = biological target: T1, Vitamin D3 receptor (Homo sapiens); experiment: Potency index, ratio of EC50 for lithocholic acid to EC50 for test compound for agonist activity at VDR in human HL60 cells assessed as induction of cell differentiation of promyelocytes to monocytes after 4 days by NBT reduction assay; assay type: cell-based; settings: HL-60, time 4.0 day
[3] = biological target: T1, Vitamin D3 receptor (Homo sapiens); experiment: Potency index, ratio of EC50 for 1-alpha,25-(OH)2D3 to EC50 for test compound for agonist activity at VDR in human HL60 cells assessed as induction of cell differentiation of promyelocytes to monocytes after 4 days by NBT reduction assay; assay type: cell-based; settings: HL-60, time 4.0 day
[4] = biological target: T2, Vitamin D3 receptor (Bos taurus) (UniProt Q28037); experiment: (§1) Displacement of [3H]-1-alpha,25-(OH)2D3 from bovine thymus VDR incubated for 18 hrs by competitive binding assay; settings: filed as agonist
T2 sequence (whole entry): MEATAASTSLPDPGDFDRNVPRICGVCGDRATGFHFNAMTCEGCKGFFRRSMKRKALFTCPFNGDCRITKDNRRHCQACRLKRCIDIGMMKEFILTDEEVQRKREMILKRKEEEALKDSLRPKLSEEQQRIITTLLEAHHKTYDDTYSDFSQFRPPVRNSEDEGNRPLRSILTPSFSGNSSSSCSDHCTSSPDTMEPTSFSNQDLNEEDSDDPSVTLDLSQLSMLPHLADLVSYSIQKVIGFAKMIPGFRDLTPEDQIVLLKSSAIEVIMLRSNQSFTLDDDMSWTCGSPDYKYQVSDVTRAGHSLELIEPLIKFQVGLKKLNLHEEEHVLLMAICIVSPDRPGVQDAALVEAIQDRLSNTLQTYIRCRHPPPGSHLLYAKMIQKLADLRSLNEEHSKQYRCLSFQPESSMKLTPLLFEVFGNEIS

Vitamin D3 receptor [5] = biological target: T3, Vitamin D3 receptor (Bos taurus, UniProt Q28037); experiment: as §1
T3 sequence (Q28037 whole entry): T2 sequence (whole entry)

Vitamin D3 receptor [6] = biological target: T4, Vitamin D3 receptor (Homo sapiens, UniProt P11473); experiment: Agonist activity at human VDR expressed in African green monkey COS7 cells expressing mouse osteopontin VDRE assessed as induction of receptor transactivation incubated for 16 hrs by luciferase reporter gene assay; assay type: cell-based
T4 sequence (P11473 whole entry): T1 sequence (whole entry)

Vitamin D3 receptor [7] = biological target: T4, Vitamin D3 receptor; experiment: Agonist activity at human VDR expressed in HEK293 cells expressing mouse osteopontin VDRE assessed as induction of receptor transactivation incubated for 16 hrs by luciferase reporter gene assay; assay type: cell-based
[8] = biological target: T1, Vitamin D3 receptor (Homo sapiens); experiment: Agonist activity at VDR in human HL-60 cells assessed as induction of cell differentiation of promyelocytes to monocytes at 1 uM after 4 days by NBT reduction assay; assay type: cell-based; settings: filed as agonist, time 4.0 day

Row | SMILES | Activity [1] | Ratio EC50 [2] | Ratio EC50 [3] | Activity [4] | IC50 (Vitamin D3 receptor [5]) | EC50 (Vitamin D3 receptor [6]) | EC50 (Vitamin D3 receptor [7]) | Activity [8]
1 | C[C@H](CCC(=O)O)[C@H]1CC[C@H]2[C@@H]3CC[C@@H]4C[C@H](CC(C)(C)O)CC[C@]4(C)[C@H]3CC[C@]12C | Active | < 10000 | 3 | Dose-dependent effect | 2.09 nM | 1 nM | 0.15 nM | 
2 | C[C@H](CCC(=O)O)[C@H]1CC[C@H]2[C@@H]3CC[C@@H]4C[C@H](C(C)(C)O)CC[C@]4(C)[C@H]3CC[C@]12C |  |  |  |  |  |  |  | Active
3 | CC(=O)O[C@@H]1CC[C@@]2(C)[C@H](CC[C@@H]3[C@@H]2CC[C@]2(C)[C@@H]([C@H](C)CCC(=O)O)CC[C@@H]32)C1 |  |  |  |  |  |  |  | Active
4 | C[C@H](CCC(=O)O)[C@H]1CC[C@H]2[C@@H]3CC[C@@H]4C[C@H](OS(C)(=O)=O)CC[C@]4(C)[C@H]3CC[C@]12C |  |  |  |  |  |  |  | Active
5 | C[C@H](CCC(=O)O)[C@H]1CC[C@H]2[C@@H]3CC[C@@H]4C[C@@H](CC(C)(C)O)CC[C@]4(C)[C@H]3CC[C@]12C |  |  |  | Dose-dependent effect | 67.3 nM | 0.24 nM | 0.014 nM | 
